Reference: patent US9890185B2, “Urea derivatives useful as kinase inhibitors” (Respivert Limited, priority 2013, dated 2018)
Converted amounts (≈) assume the structure as drawn. Where two headings read alike, the source gives them in different places.

Tests used:
[1] = test system: HT29 cells; experiment: IL-1β-induced IL-8 release in HT29 cells (assay d); type: cell-based; details: Homo sapiens, HT-29; IL-1β-stimulated HT29 cells; read-out: IC50 Values for Inhibition of Cytokine Release, HT29 cells IL-8
Procedure: HT29 cells, a human colon adenocarcinoma cell line, are plated in a 96 well plate (24 hrs) and pre-treated with compounds at the desired concentration for 2 hours before addition of 5 ng/mL of IL-1β (Abcam) for 24 hours. Supernatants are harvested for IL-8 quantification by Sandwich ELISA (Duo-set, R&D System). The IC50 is determined from the dose response curve.

[2] = target: p38 MAPK α (Homo sapiens (Human), UniProt Q16539); experiment: KINOMEscan enzyme binding assay (p38 MAPKα); details: KINOMEscan technology; read-out: Dissociation Constant, p38 MAPK α
p38 MAPK α, sequence (Q16539 whole entry): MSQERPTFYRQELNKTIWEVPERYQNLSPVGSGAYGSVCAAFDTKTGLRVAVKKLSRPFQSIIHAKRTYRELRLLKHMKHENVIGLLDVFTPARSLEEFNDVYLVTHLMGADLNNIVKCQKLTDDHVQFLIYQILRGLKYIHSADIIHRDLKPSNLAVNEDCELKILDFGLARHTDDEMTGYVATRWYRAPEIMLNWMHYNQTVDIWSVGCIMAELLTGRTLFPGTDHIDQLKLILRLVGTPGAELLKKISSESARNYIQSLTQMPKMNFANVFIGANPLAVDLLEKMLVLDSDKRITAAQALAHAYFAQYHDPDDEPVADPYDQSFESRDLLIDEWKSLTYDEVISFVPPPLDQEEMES
Procedure: (§1) Kinase enzyme binding activities of compounds disclosed herein may be determined using a proprietary assay which measures active site-directed competition binding to an immobilized ligand (Fabian, M. A. et al., Nature Biotechnol., 2005, 23:329-336). These assays may be conducted by DiscoverX (formerly Ambit; San Diego, Calif.). The percentage inhibition produced by incubation with a test compound may be calculated relative to the non-inhibited control.

[3] = test system: d-U937 cells; experiment: Accumulation of β catenin in d-U937 cells (assay m); type: cell-based, human; details: percentage relative to Reference Compound at 1 μg/mL
Summary of the method: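 Read-out: colourimetric cell-based immunoassay for endogenous β-catenin (OD450 minus 655 reference), normalised to crystal violet absorbance at 595 nm. Test compound or vehicle was applied for 18 hr to U937 monocytes first differentiated with PMA (100 ng/mL) for 48–72 hr.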

[4] = target: Syk (Homo sapiens (Human), UniProt P43405); experiment: KINOMEscan enzyme binding assay (Syk); details: KINOMEscan technology; read-out: Dissociation Constant, Syk
Procedure: as §1

[5] = test system: TNBS-induced colitis; experiment: TNBS-induced colitis in mice (in vivo assay iv); design: species or system BDF1 mice; TNBS Ulcer grade / TNBS LP inflammation: scale not given here; details: SMEDDS vehicle; for Activity in in vivo model of colonic inflammation (histopathology analysis) / Inflammatory cell infiltrate in the reticular and laminar propria zone: TNBS colitis over 2 days; for Ulcer grade and epithelial repair compared to the vehicle control: dosed orally at 5 mg/kg, 2 days; for TNBS LP inflammation / TNBS Ulcer grade: mice, 5 mg/kg orally, conducted over 2 days, histopathology
Procedure: Non-fasted, 10-12 week old, male BDF1 mice are dosed by oral gavage twice daily with either vehicle (5 mL/kg), reference item (Budesonide 2.5 mg/kg) or test compound (1 or 5 mg/kg) one day before (Day −1) stimulation of the inflammatory response by treatment with 2,4,6-trinitrobenzenesulphonic acid (TNBS) (15 mg/mL in 50% ethanol/50% saline). On Day 0 of the study TNBS (200 μL) is administered intra-colonically via a plastic catheter with BID dosing of the vehicle, reference or test compound continuing for 2 or 4 days. During the study animals are weighed every day and stool observations are made and recorded as a score, based on stool consistency. At the time of sacrifice on Day 2 (or Day 4) the large intestine is removed and the length and weight recorded. Sections of the colon are taken for histopathology scoring to determine disease severity.

[6] = Solubility in fasted-state simulated colonic fluid (FaSSCoF); type: physicochemical; details: thermodynamic from solid, pH 6.5, 25° C.; for solubility thermodynamic at 24 h: 25 °C, pH 6.5, fassgf or other biorelevant; for solubility at 24 h: fassgf or other biorelevant, read-out: Solubility in the FaSSCoF medium
Procedure: The solubilities of compounds of the invention in FaSSCoF at pH 6.5 are determined using a modification of a previously-reported procedure (Vertzoni, M., et al. Pharm. Res. 2010, 27, 2187-2196). In place of the bile salt extract employed in the original procedure (which extract is no longer available), the modified procedure uses a mixture of sodium taurochlorate (0.15 g), glycocholic acid (0.15 g), ursodeoxycholic acid (0.05 g), cholic acid (0.05 g), and glycodeoxycholic acid (0.05 g). These five bile acids are ground together with a mortar and pestle to produce a fine white powder that is incorporated into the FaSSCoF, as outlined below.
Tris(hydroxymethyl)aminomethane (Tris; 0.275 g) and maleic acid (0.44 g) are dissolved in water (35 mL) to give a solution whose pH is adjusted to 6.5 by treatment with 0.5M NaOH (ca. 12 mL). The solution is then made up to 50 mL with water. A portion of this Tris/maleate buffer solution (ca. 25 mL) is added to a 0.5 L round-bottomed flask, before being treated with 0.00565 g of the bile acid mixture described above. Solutions of phosphatidylcholine (0.0111 g) in DCM (0.15 mL) and palmitic acid (0.0013 g) in DCM (0.15 mL) are added, then the organic solvent is evaporated off under reduced pressure at 40° C. until a clear solution, with no perceptible DCM odour, is achieved. The volume of the evaporated solution is adjusted to 50 mL by addition of the remainder of Tris/maleate buffer, then BSA (0.115 g) is added, before being dissolved by gentle agitation.
Test compounds are suspended in the pH 6.5 FaSSCoF medium to give a maximum final concentration of ca. 6 mg/mL. The suspensions are equilibrated at 25° C. for 24 h, before being filtered through a glass fibre C filter. The filtrates are then diluted as appropriate for injection and quantification by HPLC with reference to a standard. Different volumes of the standard, diluted and undiluted sample solutions are injected and the solubilities are calculated using the peak areas determined by integration of the peak found at the same retention time as the principal peak in the standard injection.

[7] = Run 1, read-out: pH 6.5 FaSSCoF Solubility Run 1
[8] = Run 2, read-out: pH 6.5 FaSSCoF Solubility Run 2

Compound | IC50 [1] | Kd [2] | % β-catenin induction ([3]; test compound 1 μg/mL) | % β-catenin induction ([3]; test compound 5 μg/mL) | % β-catenin induction ([3]; test compound 10 μg/mL) | Kd [4] | Activity in in vivo model of colonic inflammation (histopathology analysis) [5] | Inflammatory cell infiltrate in the reticular and laminar propria zone [5] | Ulcer grade and epithelial repair compared to the vehicle control [5] | TNBS LP inflammation [5] | TNBS Ulcer grade [5] | solubility thermodynamic at 24 h [6, 7] | solubility thermodynamic at 24 h [6, 8] | solubility at 24 h [6]
COc1c(NC(=O)Nc2ccc(Oc3ccnc(Nc4ccccc4)c3)c3ccccc23)cc(C(C)(C)C)cc1[S+](C)[O-] (racemic) [Example 12, 1-(5-(tert-Butyl)-2-methoxy-3-(methylsulfinyl)phenyl)-3-(4-((2-(phenylamino)pyridin-4-yl)oxy)naphthalen-1-yl)urea] | 8.6 nM | 11 nM | −0.5% | 5.0% | 6.0% | 18 nM | – | – | – | – | – | – | – | –
COCCOCCOCCOc1cc(Nc2cc(Oc3ccc(NC(=O)Nc4cc(C(C)(C)C)cc(S(C)(=O)=O)c4OC)c4ccccc34)ccn2)cc(OC)c1 [Example 9, 1-(5-(tert-Butyl)-2-methoxy-3-(methylsulfonyl)phenyl)-3-(4-((2-((3-methoxy-5-(2-(2-(2-methoxyethoxy)ethoxy)ethoxy)phenyl)amino)pyridin-4-yl)oxy)naphthalen-1-yl)urea] | 4.3 nM | 26 nM | 4.5% | 5.5% | 0.0% | 29 nM | significant activity | marked reductions | marked improvements | 2.9 ± 0.3 | 3.6 ± 0.3 | – | – | –
COc1c(CC(N)=O)cc(C(C)(C)C)cc1NC(=O)Nc1ccc(Oc2ccnc(Nc3ccccc3)c2)c2ccccc12 [Example 13, 2-(5-(tert-Butyl)-2-methoxy-3-(3-(4-((2-(phenylamino)pyridin-4-yl)oxy)naphthalen-1-yl)ureido)phenyl)acetamide] | 18.2 nM | – | −4.0% | 6.5% | 9.5% | – | significant activity | marked reductions | marked improvements | 2.8 ± 0.5 | 2.6 ± 0.7 | – | – | –
COc1cc(Nc2cc(Oc3ccc(NC(=O)Nc4cc(C(C)(C)C)cc(P(C)(C)=O)c4OC)c4ccccc34)ccn2)cc(C(N)=O)c1 [Example 37, 3-((4-((4-(3-(5-(tert-butyl)-3-(dimethylphosphoryl)-2-methoxyphenyl)ureido)-naphthalen-1-yl)oxy)pyridin-2-yl)amino)-5-methoxybenzamide] | – | 4.5 nM | 2.0% | 15.5% | 25.5% | 5.1 nM | – | – | – | – | – | – | – | –
COc1cc(Nc2cc(Oc3ccc(NC(=O)Nc4cc(C(C)(C)C)cc([S+](C)[O-])c4OC)c4ccccc34)ccn2)ccc1C(=O)NCCN1CCOCC1 (stereo not shown) [Example 72, 4-((4-((4-(3-(5-(tert-Butyl)-2-methoxy-3-(methylsulfinyl)phenyl)ureido)naphthalen-1-yl)oxy)pyridin-2-yl)amino)-2-methoxy-N-(2-morpholinoethyl)benzamide] | – | – | – | – | – | – | – | – | – | – | – | 10.7 µg/mL (≈ 13.7 µM) | 11.2 µg/mL (≈ 14.3 µM) | > 10 µg/mL
COc1cc(Nc2cc(Oc3ccc(NC(=O)Nc4cc(C(C)(C)C)cc(CC(N)=O)c4OC)c4ccccc34)ccn2)ccc1C(=O)NCC(CO)(CO)CO [Example 73, 4-((4-((4-(3-(3-(2-Amino-2-oxoethyl)-5-(tert-butyl)-2-methoxyphenyl)ureido)naphthalen-1-yl)oxy)pyridin-2-yl)amino)-N-(3-hydroxy-2,2-bis(hydroxymethyl)propyl)-2-methoxybenzamide] | – | – | – | – | – | – | – | – | – | – | – | 15.2 µg/mL (≈ 19.5 µM) | 16.6 µg/mL (≈ 21.3 µM) | > 10 µg/mL
COCCOCCOCCNC(=O)c1cc(Nc2cc(Oc3ccc(NC(=O)Nc4cc(C(C)(C)C)cc(CNC(=O)CN(C)C)c4OC)c4ccccc34)ccn2)cc(OC)c1 [Example 77, 3-((4-((4-(3-(5-(tert-Butyl)-3-((2-(dimethylamino)acetamido)methyl)-2-methoxyphenyl)ureido)naphthalen-1-yl)oxy)pyridin-2-yl)amino)-5-methoxy-N-(2-(2-(2-methoxyethoxy)ethoxy)ethyl)benzamide] | – | – | – | – | – | – | – | – | – | – | – | 12.3 µg/mL (≈ 14.2 µM) | 13 µg/mL (≈ 15 µM) | > 10 µg/mL
